# In PubChem BioAssay AID602236 (The Scripps Research Institute Molecular Screening Center, 2012):
# Active and inactive are the calls of the source.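 How the source made its calls: active means IC50 of 10 µM or lower; inactive means IC50 above 10 µM.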
# Test system: HEK-293 Gal4-VP16 UAS luciferase reporter, luminescence
# Assay: GAL4-VP16 reporter repression curves – cell-based, luminescence, high throughput, SRC1 series, counter-screen for SRC1 inhibitor project, dose response (AID 602236);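 further: inhibitor potency where hits lower luciferase light from Gal4-VP16 transactivation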
row,SMILES,IC50
1,COc1ccccc1/C=C\C(=O)NCC(=O)N/N=C/c1cccc(OC)c1O,15.5 µM (inactive)
2,COc1cccc(CNc2ncnc3ccc(-c4c(C)noc4C)cc23)c1,> 35.9 µM (inactive)
3,Cc1ccc(NC(=O)CCC(=O)N/N=C/c2ccc(O)cc2O)cc1,23 µM (inactive)
4,Cn1c(=O)c2[nH]c(COc3ccc(C(C)(C)C)cc3)nc2n(C)c1=O,8.31 µM
5,Cc1ccc(C(=O)Nc2sc(C)c(-c3ccccc3)c2C(N)=O)cc1[N+](=O)[O-],> 35.9 µM (inactive)
6,CCN(CC)CCNC(=O)c1ccc(NC(=O)C2CCN(c3ncnc4sc(C)c(C)c34)CC2)cc1,5.54 µM
7,S=C(c1ccc(-c2ccccc2)cc1)N1CCOCC1,24 µM (inactive)
8,O=c1ccc2c(ccc3ncccc32)o1,18.1 µM (inactive)
9,CCN1CCN(C(=S)c2ccc(-c3ccccc3)cc2)CC1,29.5 µM (inactive)
10,Cc1nc2c(-c3ccc(F)cc3)cnn2c(N)c1-c1ccccc1,14.5 µM (inactive)
11,Nc1ncccc1C(=O)OCC(=O)N1CCN(S(=O)(=O)c2ccc(Cl)cc2)CC1,12.8 µM (inactive)
12,Cc1ccc(OCC(=O)c2cc(C)n(Cc3cccs3)c2C)c([N+](=O)[O-])n1,12.1 µM (inactive)
13,OCCN1CCN(C(=S)c2ccc(-c3ccccc3)cc2)CC1,30.7 µM (inactive)
14,CNc1ncnc(Sc2nc(N)nc3nc[nH]c23)c1[N+](=O)[O-],5.79 µM
15,COc1cccc(C2=CC(=O)CC(C)(C)C2)c1,24 µM (inactive)
16,O=C(Nc1cccc(Cl)c1)Nc1nnc(-c2ccncc2)s1,5.14 µM
17,Cc1ccc(NC(=O)C2CCN(c3ncnc4sc(C)c(C)c34)CC2)cc1S(=O)(=O)N(C)C,13.4 µM (inactive)
18,C=CCNc1ncnc2ccc(Br)cc12,5.96 µM
19,S=C(Nc1ccccc1)Nc1ccc(OCc2ccc(Cl)cc2Cl)cc1,6.69 µM
20,O=C(Nc1nc(-c2ccccn2)cs1)c1cccc(-n2cnnn2)c1,17 µM (inactive)
21,O=C(CCCOc1ccc(Cl)cc1Cl)N/N=C/c1ccccc1O,4.77 µM
22,COc1ccc(-n2cnc(N)c2C(=O)c2cccc([N+](=O)[O-])c2)cc1,15.7 µM (inactive)
23,CN(C)C(=O)c1cccc(COc2ccc(N3C(N)=NC(N)=NC3(C)C)cc2Cl)c1,> 35.8 µM (inactive)
24,CCc1c(C)nc2c(C)cccc2c1SCCC#N,> 35.9 µM (inactive)

row,SMILES,IC50
1,CN(C)c1ccc(/C=C/c2nc3ccccc3s2)cc1,19.8 µM (inactive)
2,CC1CCCCN1c1ncnc2ccccc12 (configuration not stated),13.4 µM (inactive)
3,CCCCCOc1ccc(/C=C/c2c([N+](=O)[O-])c(=O)n(C)c(=O)n2C)cc1,10.1 µM (inactive)
4,Nc1ccc(-c2cc3ccccc3oc2=O)cc1,> 35.8 µM (inactive)
5,COc1ccc(Nc2ncnc3ccc(Br)cc23)c(OC)c1,15.9 µM (inactive)
6,COc1cc(C2c3cc4c(cc3C(OC3OC5COC(c6cccs6)OC5C(O)C3O)C3COC(=O)C23)OCO4)cc(OC)c1O (configuration not stated),> 35.9 µM (inactive)
7,O=C1CCC/C1=c1\s/c(=C/c2cccnc2)c(=O)n1-c1ccccc1,11.2 µM (inactive)
8,O=C(COC(=O)c1ccc[nH]c1=O)Nc1ccc(N2CCCCC2)cc1,> 35.9 µM (inactive)
9,CC(=O)c1cccc(NC(=O)COc2cc3oc(=O)c(CC(C)O)c(C)c3cc2Cl)c1 (configuration not stated),> 35.9 µM (inactive)
10,CCN(Cc1ccncc1)C(=O)CC1C(=O)NCCN1Cc1ccc(F)c(F)c1 (configuration not stated),15.8 µM (inactive)
11,Cc1cccc(C)c1-c1ccc(CN2C(CC(C)C)C(=O)N(Cc3cn(CC4CCCCC4)nn3)CCS2(=O)=O)cc1 (configuration not stated),16.6 µM (inactive)
12,COc1cccc(NC(=O)CN(C)CC(=O)Nc2ccc(Cl)cc2[N+](=O)[O-])c1,20.3 µM (inactive)
13,CCn1c(Oc2ccc(F)cc2)nc2c1c(=O)n(C)c(=O)n2C,12.4 µM (inactive)
14,O=C(O)c1ccccc1C(=O)Nc1ccc(Oc2cccc3ccccc23)cc1,> 35.9 µM (inactive)
15,CC(=O)C1=C(C)NC2=C(C(=O)CC(C)(C)C2)C1C (configuration not stated),13.1 µM (inactive)
16,O=C1c2cccc(OCc3ccc(F)cc3)c2CCN1Cc1ccccc1,10.7 µM (inactive)
17,NC(=O)c1cc(Sc2ccccc2)nc2ccccc12,11.6 µM (inactive)
18,COc1ccc(/C=C2\CC/C(=C\c3ccc(OC)c(OC)c3)C2=O)cc1OC,5.39 µM
19,Cc1ccc(/C=C2\SC(=S)N(CCCC(=O)NC3CCCC3)C2=O)cc1,5.37 µM
20,COc1ccc(Nc2ncnc3ccc(C)cc23)cc1,8.4 µM
21,Cc1c(CC(=O)NCCCC(=O)O)c(=O)oc2cc3c(cc12)CCC(C)(C)O3,18.4 µM (inactive)
22,CCCS(=O)(=O)Nc1ccc(Nc2c3ccccc3nc3ccccc23)c(OC)c1,> 35.9 µM (inactive)
23,CCc1ccc(-c2nc(CSCC(=O)NCc3ccco3)c(C)o2)cc1,21.8 µM (inactive)
24,N#Cc1c(-c2ccccc2)c(C#N)c2nc3ccccc3n2c1N,> 35.9 µM (inactive)

row,SMILES,IC50
1,CCN(c1ccccc1)S(=O)(=O)c1cc(C(=O)Nc2ccc(Br)cc2)ccc1F,8.24 µM
2,O=C(O)CN1C(=O)/C(=C\c2ccccc2OCc2ccc(Cl)cc2Cl)SC1=S,> 35.9 µM (inactive)
3,CC(C)n1c(SCC(=O)Nc2nc3c(s2)CCCC3)nc2c1c(=O)n(C)c(=O)n2C,13.9 µM (inactive)
4,CCOC(=O)CSc1cc(-c2ccccc2)nc2ncnn12,> 35.9 µM (inactive)
5,CCCc1cc(C(=O)N(C)CC(=O)Nc2ccc(OCC)c(OCC)c2)sc1C,> 35.9 µM (inactive)
6,CCn1c2ccccc2c2cnc(N=CN(C)C)c(C#N)c21,28.9 µM (inactive)
7,Cc1nc2ccccn2c1-c1ccnc(=S)[nH]1,> 35.8 µM (inactive)
8,Cc1ccc(O)c(C(=O)c2cnn(C(=O)COc3ccc(Cl)cc3)c2)c1,27.6 µM (inactive)
9,O=C(Nc1nc(-c2ccccn2)cs1)c1cccc(S(=O)(=O)N2CCOCC2)c1,8.59 µM
10,NNC(=O)c1cc2ccccc2cc1O,18.4 µM (inactive)
11,c1cc2[nH]snc2c2nc(C3CC3)nc12,3.5 µM
12,COc1ccc(-c2ncncc2-c2ccccc2)c(O)c1,19.4 µM (inactive)
13,Cc1nn(C(C)(C)C)c(C)c1/C=N/OC(=O)Nc1ccc(Cl)c(Cl)c1,13.9 µM (inactive)
14,CC[C@@]1(O)C(=O)OCc2c1cc1n(c2=O)Cc2cc3c(NC(=O)CN)cccc3nc2-1,> 35.9 µM (inactive)
15,CC(C)(C)NC(=O)C1(C)CCC(=O)N1CCCn1ccnc1 (configuration not stated),12.5 µM (inactive)
16,COc1ccc2[nH]c(=O)c(CN(CCN3CCCC3)C(=O)Nc3ccccc3Cl)cc2c1,23.8 µM (inactive)
17,COc1ccc(Cc2nnc(SCc3ccc([N+](=O)[O-])cc3)o2)cc1,15.3 µM (inactive)
18,Cc1ccc2occ(/C=N/NC(=O)c3ccncc3)c(=O)c2c1,22.8 µM (inactive)
19,CCOc1ccccc1-n1c(SCC(=O)Nc2ccccc2C(=O)O)nc2ccccc2c1=O,> 35.9 µM (inactive)
20,Cc1cccc(C)c1-n1nnnc1C(c1cccs1)N1CCC2(CC1)C(=O)NCN2c1ccccc1 (configuration not stated),14.4 µM (inactive)
21,CCOc1cccc(/C=N/NC(=O)c2cccnc2)c1O,8.44 µM
22,O=C(CCl)N(c1ccccc1)C1CCS(=O)(=O)C1 (configuration not stated),16.2 µM (inactive)
23,Cc1nc2sc(C(N)=O)c(N)c2c(C)c1CC(=O)c1ccccc1,> 35.9 µM (inactive)
24,O=C(Nc1ccncc1)c1ccccc1[N+](=O)[O-],14.2 µM (inactive)
